Measured values published in US20130309238A1, “SIGNAL TRANSDUCTION PATHWAY MODULATION” (NEWCASTLE INNOVATION LIMITED, priority 2010, published 2013).

How the values were obtained:
[1] = test system: peribronchial lymph node cells; assay: Cytokine release from in-vitro HDM-stimulated peribronchial lymph node cells; format: in vivo, BALB/c mice; conditions: HDM-sensitized and challenged mice
Method: Peribronchial lymph node cells were excised, filtered, and cultured in the presence or absence of 50 mcg/ml HDM (optimal concentration) for 6 days. IL-13, IL-5, and IFN-γ were determined by ELISA (BD Biosciences Pharmingen).

[2] = test system: sphingosine-1-phosphate receptors; conditions: Don et al., 2007; cited from earlier work
sphingosine kinase 2 = sphingosine kinase 2 (Homo sapiens, UniProt Q9NRA0); conditions: Don et al., 2007; cited from earlier work
Sequence of sphingosine kinase 2 (Q9NRA0 whole entry, species assumed): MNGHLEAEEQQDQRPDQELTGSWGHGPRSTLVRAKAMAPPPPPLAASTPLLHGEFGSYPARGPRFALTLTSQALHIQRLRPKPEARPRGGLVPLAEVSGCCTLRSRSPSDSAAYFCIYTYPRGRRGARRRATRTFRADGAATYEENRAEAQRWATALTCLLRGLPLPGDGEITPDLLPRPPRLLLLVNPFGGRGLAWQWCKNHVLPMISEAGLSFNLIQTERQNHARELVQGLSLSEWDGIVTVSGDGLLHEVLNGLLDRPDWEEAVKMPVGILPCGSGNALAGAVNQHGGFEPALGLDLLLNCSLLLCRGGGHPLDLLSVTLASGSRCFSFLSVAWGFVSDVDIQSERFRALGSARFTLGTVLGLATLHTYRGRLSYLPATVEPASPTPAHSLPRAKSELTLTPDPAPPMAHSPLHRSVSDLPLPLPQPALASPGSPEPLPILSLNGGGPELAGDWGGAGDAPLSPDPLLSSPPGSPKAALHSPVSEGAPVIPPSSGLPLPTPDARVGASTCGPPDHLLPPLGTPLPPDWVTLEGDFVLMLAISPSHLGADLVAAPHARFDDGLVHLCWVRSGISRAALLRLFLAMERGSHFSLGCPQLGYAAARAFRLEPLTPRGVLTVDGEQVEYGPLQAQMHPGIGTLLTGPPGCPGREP

[3] = in vivo; cited from earlier work
HDM-allergic mice [4] = assay: AHR measurement in house dust mite (HDM)-induced allergic airways disease; format: in vivo, BALB/c mice; conditions: HDM-sensitized and challenged mice; treatment during allergen challenge
Method: Mice were sensitized and challenged by exposing them intranasally to house dust mite (HDM) (50 mcg daily at day 0, 1, and 2 followed by 5×5 mcg daily from day 14 to day 17 delivered in 50 μl of sterile saline). The single dose of HDM employed in initial studies was 50 mcg/50 μl of sterile saline. Non-sensitized mice received sterile saline only.
AHR was assessed invasively in separate groups of anesthetized mice by measurement of total lung resistance and dynamic compliance. Percentage increase over baseline (water) in response to nebulised methacholine was calculated.
(§1) Specifically, allergic mice were treated with a commercially available (Ambion) in-vitro validated small interfering (si)RNA directed against Midline-1 (SEQ ID NO:3) (MID1 siRNA) or a scrambled nonsense siRNA (control) following previously established protocols. BALB/c mice were anesthetised with isoflurane before being sensitised with the intranasal administration of either 50 μg House Dust Mite antigen (HDM) in 50 μl of sterile saline or 50 μl of sterile saline in control groups. This sensitisation was repeated at days 1 and 2 following initial sensitisation. On day 14 following initial sensitisation the mice were again anesthetised with isoflurane before receiving intranasal challenge with 5 μg of HDM in […] of sterile water. This challenge dosage was repeated daily from day 14 through 17. Mice received intranasal administration of maked Mid-1 siRNA or scramble control in 25 μl of saline under isoflurane anaesthesia on days 13, 15 and 17, through the period of HDM challenge. On day 18, 24 hrs after the final HDM challenge, the mice were sacrificed with an excess dose of sodium pentobarbitone administered intraperitoneally (200 μl total volume).

bleomycin-treated mice = conditions: bleomycin intratracheally, sacrificed after 23 days; AAL(S) daily
From the text: (§2) The inventors then determined the ability of AAL(S) to protect against airway fibrosis in two mouse models, a chronic ovalbumin model of allergic airways disease and an acute bleomycin-induced fibrosis model.
In the bleomycin model, mice received bleomycin intratracheally and were sacrificed after 23 days. AAL(S) treated mice received AAL(S) daily post bleomycin administration.

[5] = test system: ovalbumin-challenged mice; conditions: OVA 3x a week for 3 months, AAL(S) daily
From the text: as §2
Mice received ovalbumin (OVA)+alumn IP at day 0 and 2 weeks. Mice then received OVA 3× a week for 3 months. AAL treated mice received AAL(S) daily throughout the 3 month challenge period.

CCL20 = CCL20 expression/release in airway wall or lung homogenates of HDM-allergic mice; format: in vivo, BALB/c mice; conditions: HDM-sensitized and challenged mice
Method: Total RNA was isolated with mirVana m/miRNA Isolation kit (Ambion) from lower airway tissue that was separated by blunt dissection allowing effective separation of the airway wall from the parenchyma (Mattes, 2009). quantitative RT-PCR (qRT-PCR) was performed with SYBR® Green (Invitrogen) using an Eppendorf […] (threshold cycle) quantification was performed using Eppendorf Realplex analysis software 2.2. Mouse mRNA expression was normalised to HPRT, human mRNA to GAPDH. Fold change was calculated using delta delta CT values relative to control groups.

PP2A [6] = biological target: T1, PP2A (Homo sapiens, UniProt P67775); assay: PP2A activity in HDM-stimulated human bronchial epithelial cells (BEAS-2B); format: cell-based; conditions: BEAS-2B + crude HDM extract, 24 hours; salbutamol 0.1, 1, 10 μM; mitoxantrone analogue 1, 5, 25 μg/ml; AAL(s) 0.5, 2 μM
T1 construct: endogenous in cells; host or cells: BEAS-2B
T1 sequence (P67775 whole entry): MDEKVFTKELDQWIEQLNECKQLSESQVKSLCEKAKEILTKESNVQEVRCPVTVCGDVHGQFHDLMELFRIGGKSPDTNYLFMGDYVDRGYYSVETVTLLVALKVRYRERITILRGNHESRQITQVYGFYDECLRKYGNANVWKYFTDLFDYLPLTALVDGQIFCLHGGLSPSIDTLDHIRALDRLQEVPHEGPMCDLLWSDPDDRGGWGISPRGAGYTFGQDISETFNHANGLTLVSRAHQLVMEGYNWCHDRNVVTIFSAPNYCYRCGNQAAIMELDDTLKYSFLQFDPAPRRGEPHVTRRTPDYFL
T1 sequence (P30153 whole entry partner): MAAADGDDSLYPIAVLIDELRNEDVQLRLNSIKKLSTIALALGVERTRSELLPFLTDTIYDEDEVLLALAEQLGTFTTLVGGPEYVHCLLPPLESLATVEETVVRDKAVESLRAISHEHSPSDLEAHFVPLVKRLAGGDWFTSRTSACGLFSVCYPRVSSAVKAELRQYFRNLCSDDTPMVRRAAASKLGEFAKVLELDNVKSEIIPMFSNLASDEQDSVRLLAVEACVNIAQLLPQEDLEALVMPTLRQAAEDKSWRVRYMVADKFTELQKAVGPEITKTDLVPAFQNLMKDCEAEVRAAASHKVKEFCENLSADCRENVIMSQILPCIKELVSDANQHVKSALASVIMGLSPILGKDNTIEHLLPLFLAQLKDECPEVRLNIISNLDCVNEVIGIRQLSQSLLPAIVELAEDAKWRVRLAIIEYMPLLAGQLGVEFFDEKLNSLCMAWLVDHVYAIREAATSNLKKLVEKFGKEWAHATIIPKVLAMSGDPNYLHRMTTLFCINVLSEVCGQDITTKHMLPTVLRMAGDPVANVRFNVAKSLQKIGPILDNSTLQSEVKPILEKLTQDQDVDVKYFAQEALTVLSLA
Method: • Activation of PP2A The inventors have examined the ability of known PP2A agonists to influence PP2A activity in human bronchial epithelial cells stimulated with crude house dust mite extract. Immortalised human bronchial epithelial cells (BEAS-2B) were seeded at 1×10^5 cells/well in 12-well tissue culture plates and allowed to reach 80% confluency. Cells were then treated with either salbutamol, a mitoxantrone analogue, or AAL(s), at a range of tolerable concentrations (0.1, 1 and 10 μM for salbutamol; 1, 5 and 25 μg/ml for the nitoxantrone analaogue; and 0.5 and 2 μM for AAL(s)). Simultaneously, cells were stimulated with crude House Dust Mite (HDM) extract and left for 24 hours. Cells were then collected, washed, lysed, and PP2A activity assayed (R&D Systems), measuring phosphatase activity when fed a synthetic substrate. PP2A activity was reduced upon HDM stimulation compared to the non-stimulated media only group (representing physiologically normal activity levels).

HDM-allergic mice [7] = assay: Airway inflammation, mucus-producing cells and BALF cells in HDM-induced allergic airways disease; format: in vivo, BALB/c mice
Method: as §1, with “Mice were sensitized and challenged by exposing them intranasally to house dust mite (HDM) (50 mcg daily at day 0, 1, and 2 followed by 5×5 mcg daily from day 14 to day 17 delivered in 50 μl of sterile saline). The single dose of HDM employed in initial studies was 50 mcg/50 μl of sterile saline. Non-sensitized mice received sterile saline only. Lung tissue was stained, cells identified by morphological criteria, and quantitated by counting ten high power fields (HPFs) in each slide. […] Specifically,” for “Specifically,”

PP2A [8] = biological target: PP2A (Mus musculus, UniProt P63330); conditions: HDM-allergic mice, daily intranasal treatment
Sequence of PP2A (Mus musculus, UniProt P63330) (P63330 whole entry): as the sequence (P67775 whole entry) above, with V5L counted along it
Sequence of PP2A (Mus musculus, UniProt P63330) (Q76MZ3 whole entry partner): as the sequence (P30153 whole entry partner) above, with S324T counted along it
Method: PP2a activity was measured by R&D Systems PP2A DuoSet IC activity assay kit according to the manufacturer's instructions. This was performed on homogenized mouse lungs and harvested BEAS-2B cells.

[9] = HDM-allergic and challenged mice

SMILES	Th2 cytokine release in allergen-stimulated peribronchial lymphnode cultures [1]	binding to sphingosine-1-phosphate receptors [2]	phosphorylation by sphingosine kinase 2 (sphingosine kinase 2)	lymphopenia [3]	airways hyperresponsiveness (total lung resistance in response to inhaled methacholine) (HDM-allergic mice [4])	collagen deposition in airways (bleomycin-treated mice)	lung function (forced vital capacity and forced expiratory volume in 100 milliseconds) [5]	airways fibrosis (collagen deposition surrounding the airways) ([5]; wildtype BALB/c mice)	CCL20 release (levels in lung homogenates) (CCL20)	PP2A activity (phosphatase activity on synthetic substrate) (PP2A [6])	airways inflammation (HDM-allergic mice [7]; HDM-sensitized and challenged mice, treatment during allergen challenge)	PP2A activity in the lungs (PP2A [8])	eosinophils (BALF) (HDM-allergic mice [7]; [9])	lymphocytes (BALF) (HDM-allergic mice [7]; [9])	neutrophils (BALF) (HDM-allergic mice [7]; [9])
CCCCCCCOc1ccc(CCC(C)(N)CO)cc1 [AAL(S), 2-amino-4-(4-heptyloyphenol)-2-methylbutanol]	reduced	does not bind	cannot be phosphorylated	does not cause lymphopenia	precluded the development	protected	improved	protected	reduced	fully restored	precluded the development	reactivates PP2A in the lungs			
CCCCCCCCc1ccc(CCC(N)(CO)CO)cc1 [FTY720]					reduced				reduced				reduced	reduced	reduced
CCCCCCCCc1ccc(CCC(N)(CO)COP(=O)(O)O)cc1 (stereo not drawn) [pFTY720]					partial reduction								partial reduction		partial reduction
CC(C)(C)NCC(O)c1ccc(O)c(CO)c1 (stereo not drawn) [salbutamol]										restore PP2A activity to a significant level					
